Assay [1] addresses HDAC1 enzyme (recombinant GST-HDAC1) (Homo sapiens (Human), UniProt Q13547). The assay can be described thus: In vitro HDAC assay for determination of IC50 values (BIOMOL fluorescent-based HDAC activity assay). The class given is biochemical. As to conditions: Flur de lys substrate, 2 h room temperature, read-out: IC50 (HDAC 1). The procedure: Biological Testing and Enzyme Assays Recombinant GST-HDAC1 Protein Expression and Purification
Human cDNA library was prepared using cultured SW620 cells. Amplification of human HDAC1 coding region from this cDNA library was cloned separately into the baculovirus expression pDEST20 vector (GATEWAY Cloning Technology, Invitrogen Pte Ltd). The pDEST20-HDAC1 construct was confirmed by DNA sequencing. Recombinant baculovirus was prepared using the Bac-To-Bac method following the manufacturer's instruction (Invitrogen Pte Ltd).
Expression of GST-HDAC1 was done by infecting SF9 cells (Invitrogen Pte Ltd) with pDEST20-HDAC1 baculovirus at MOI=1 for 48 h. Soluble cell lysate was incubated with pre-equilibrated Glutathione Sepharose 4B beads (Amersham) at 4° C. for 2 h. The beads were washed with PBS buffer for 3 times. The GST-HDAC1 protein was eluted by elution buffer containing 50 mM Tris, pH8.0, 150 mM NaCl, 1% Triton X-100 and 10 mM or 20 mM reduced Glutathione. The purified GST-HDAC1 protein was dialyzed with HDAC storage buffer containing 10 mM Tris, pH7.5, 100 mM NaCl and 3 mM MgCl2. 20% Glycerol was added to purified GST-HDAC1 protein before storage at −80° C.
In Vitro HDAC Assay for Determination of IC50 Values
The assay has been carried out in 96 well format and the BIOMOL fluorescent-based HDAC activity assay has been applied. […] Flur de lys Developer was added and the reaction was incubated for 10 min. Briefly, deacetylation of the substrate sensitizes it to the developer, which then generates a fluorophore. The fluorophore is excited with 360 nm light and the emitted light (460 nm) is detected on a fluorometric plate reader (Tecan Ultra Microplate detection system, Tecan Group Ltd.).
The analytical software, Prism 4.0 (GraphPad Software Inc) has been used to generate IC50 from a series of data.

In assay [2] the test system is Colo205 cells. As to the kind of experiment: Cell-based proliferation assay for determination of GI50 values (CyQUANT). More on the design: species or system human. The note with it: Homo sapiens, COLO 205, 96 h treatment. The protocol:
Cell-Based Proliferation Assay for Determination of GI50 Values
Human cancer cell lines (e.g. Colo205) were obtained from ATCC. Colo205 cells were cultivated in RPMI 1640 containing 2 mM L-Glutamine, 5% FBS, 1.0 mM Na Pyruvate. Colo205 cells were seeded in 96-wells plate at 5000 cells per well. The plates were incubated at 37° C., 5% CO2, for 24 h. Cells were treated with compounds at various concentrations for 96 h. Cell growth was then monitored using CyQUANT® cell proliferation assay (Invitrogen Pte Ltd). Dose response curves were plotted to determine GI50 values for the compounds using XL-fit (ID Business Solution, Emeryville, Calif.). GI50 is defined as the concentration of compound required for 50% inhibition of cell growth.
The cellular or growth inhibition activity results of representative compounds are shown in Table 4 below (unit in the table is micromolar).

The values below come from US8648092B2, “Imidazo[1,2-a]pyridine derivatives: preparation and pharmaceutical applications” (MEI Pharma, priority 2005, dated 2014).

Some results are limits rather than exact numbers.

Chain of HDAC1 enzyme (recombinant GST-HDAC1) (Q13547 whole entry): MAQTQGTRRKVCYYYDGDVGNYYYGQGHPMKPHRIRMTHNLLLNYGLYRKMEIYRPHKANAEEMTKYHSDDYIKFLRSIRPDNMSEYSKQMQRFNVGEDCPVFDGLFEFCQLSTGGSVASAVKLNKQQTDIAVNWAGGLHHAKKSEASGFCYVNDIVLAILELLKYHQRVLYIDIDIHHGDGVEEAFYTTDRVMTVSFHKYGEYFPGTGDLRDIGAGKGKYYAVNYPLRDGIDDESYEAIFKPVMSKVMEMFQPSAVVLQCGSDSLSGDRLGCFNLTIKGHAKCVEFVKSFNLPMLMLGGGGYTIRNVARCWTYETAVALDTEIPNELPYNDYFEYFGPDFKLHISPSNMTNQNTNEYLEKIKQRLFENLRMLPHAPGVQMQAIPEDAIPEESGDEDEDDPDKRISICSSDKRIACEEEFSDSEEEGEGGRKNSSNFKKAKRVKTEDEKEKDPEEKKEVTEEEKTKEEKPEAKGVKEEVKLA

Turning to `CCN(CCN(C)C)Cc1c(-c2ccccc2)nc2cc(/C=C/C(=O)NO)ccn12` [Compound 44, 3-(3-{[(2-Dimethylamino-ethyl)-ethyl-amino]-methyl}-2-phenyl-imidazo[1,2-a]pyridin-7-yl)-N-hydroxy-acrylamide], in assay [1], the 50% inhibitory concentration (IC50) worked out at 2900 nM. Besides, halving of growth in assay [2] (GI50) required 32000 nM.
The corresponding values for `O=C(/C=C/c1ccn2c(CNCC(F)(F)F)c(-c3ccccc3)nc2c1)NO` [Compound 46, N-Hydroxy-3-{2-phenyl-3-[(2,2,2-trifluoro-ethylamino)-methyl]-imidazo[1,2-a]pyridin-7-yl}-acrylamide] are over 10000 nM and 11000 nM.
The matching figures for `CCN(CC)CCNCc1c(-c2ccccc2)nc2cc(/C=C/C(=O)NO)ccn12` [Compound 47, 3-{3-[(2-Diethylamino-ethylamino)-methyl]-2-phenyl-imidazo[1,2a]pyridin-7-yl}-N-hydroxy-acrylamide]: 650 nM and 30000 nM.
The corresponding values for `CCCN(CCO)Cc1c(-c2ccccc2)nc2cc(/C=C/C(=O)NO)ccn12` [Compound 48, N-Hydroxy-3-(3-{[(2-hydroxy-ethyl)-propyl-amino]-methyl}-2-phenyl-imidazo[1,2-a]pyridin-7-yl)-acrylamide] are 1000 nM and 9200 nM.
On to `CCCN(C)Cc1c(C(C)(C)C)nc2cc(/C=C/C(=O)NO)ccn12` [Compound 50, 3-{2-tert-Butyl-3-[(methyl-propyl-amino)-methyl]-imidazo[1,2-a]pyridin-7-yl}-N-hydroxy-acrylamide], for which the IC50 in assay [1] stood at 520 nM. The 50% growth inhibitory concentration (GI50) in assay [2] was found to be 2400 nM.
The matching figures for `CCN(CC)Cc1c(-c2ccccc2)nc2cc(/C=C/C(=O)NO)ccn12` [Compound 51, 3-(3-Diethylaminomethyl-2-phenyl-imidazo[1,2-a]pyridin-7-yl)-N-hydroxy-acrylamide]: 200 nM and 1100 nM.
The matching figures for `CCCN(CC)Cc1c(-c2ccccc2)nc2cc(/C=C/C(=O)NO)ccn12` [Compound 52, 3-{3-[(Ethyl-propyl-amino)-methyl]-2-phenyl-imidazo[1,2-a]pyridin-7-yl}-N-hydroxy-acrylamide]: 240 nM and 1200 nM.
`CCCN(Cc1c(-c2ccccc2)nc2cc(/C=C/C(=O)NO)ccn12)CC1CC1` [Compound 53, 3-{3-[(Cyclopropylmethyl-propyl-amino)-methyl]-2-phenyl-imidazo[1,2a]pyridin-7-yl}-N-hydroxy-acrylamide]: the IC50 in assay [1] worked out at 600 nM. The same compound displayed a GI50 in assay [2] of 2900 nM.
The matching figures for `CCCN(Cc1c(-c2ccccc2)nc2cc(/C=C/C(=O)NO)ccn12)C(C)CC` (stereo not shown) [Compound 54, 3-{3-[(sec-Butyl-propyl-amino)-methyl]-2-phenyl-imidazo[1,2-a]pyridin-7-yl}-N-hydroxy-acrylamide]: 1000 nM and 4700 nM.
The matching figures for `CC1CN(Cc2c(-c3ccccc3)nc3cc(/C=C/C(=O)NO)ccn23)CC(C)O1` (stereo not shown) [Compound 55, 3-[3-(2,6-Dimethyl-morpholin-4-ylmethyl)-2-phenyl-imidazo[1,2-a]pyridin-7-yl]-N-hydroxy-acrylamide]: 2400 nM and 9300 nM.
The corresponding values for `CCN(CCOC)Cc1c(-c2ccccc2)nc2cc(/C=C/C(=O)NO)ccn12` [Compound 56, 3-(3-{[Ethyl-(2-methoxy-ethyl)-amino]-methyl}-2-phenyl-imidazo[1,2-a]pyridin-7-yl)-N-hydroxy-acrylamide] are 1600 nM and 9000 nM.
Turning to `CCN1CCN(Cc2c(-c3ccccc3)nc3cc(/C=C/C(=O)NO)ccn23)CC1` [Compound 57, 3-[3-(4-Ethyl-piperazin-1-ylmethyl)-2-phenyl-imidazo[1,2-a]pyridin-7-yl]-N-hydroxy-acrylamide], the IC50 in assay [1] turned out to be 4600 nM. In assay [2], this compound gave a GI50 of 14000 nM.
The corresponding values for `O=C(C=Cc1ccn2c(CN3CCC(Cc4ccccc4)CC3)c(-c3ccccc3)nc2c1)NO` [Compound 58, 3-[3-(4-Benzyl-piperidin-1-ylmethyl)-2-phenyl-imidazo[1,2-a]pyridin-7-yl]-N-hydroxy-acrylamide] are 1500 nM and 2900 nM.
The corresponding values for `CC(C)(C)CNCc1c(-c2ccccc2)nc2cc(/C=C/C(=O)NO)ccn12` [Compound 59, 3-{3-[(2,2-Dimethyl-propylamino)-methyl]-2-phenyl-imidazo[1,2-a]pyridin-7-yl}-N-hydroxy-acrylamide] are 230 nM and 2100 nM.
`O=C(/C=C/c1ccn2c(CNCC3CC3)c(-c3ccccc3)nc2c1)NO` [Compound 61, 3-{3-[(Cyclopropylmethyl-amino)-methyl]-2-phenyl-imidazo[1,2-a]pyridin-7-yl}-N-hydroxy-acrylamide]: in assay [1], the half-maximal inhibitory concentration (IC50) came to 80 nM. In assay [2], this compound displayed a 50% growth inhibitory concentration (GI50) of 560 nM.
The matching figures for `O=C(/C=C/c1ccn2c(CNC3CC3)c(-c3ccccc3)nc2c1)NO` [Compound 62, 3-(3-Cyclopropylaminomethyl-2-phenyl-imidazo[1,2-a]pyridin-7-yl)-N-hydroxy-acrylamide]: 310 nM and 2500 nM.
The corresponding values for `CC(C)(C)NCc1c(-c2ccccc2)nc2ccc(/C=C/C(=O)NO)cn12` [Compound 65, 3-[3-(tert-Butylamino-methyl)-2-phenyl-imidazo[1,2-a]pyridin-6-yl]-N-hydroxy-acrylamide] are over 10000 nM and 62000 nM.
The corresponding values for `CCCCNCc1c(-c2ccccc2)nc2ccc(/C=C/C(=O)NO)cn12` [Compound 66, 3-(3-Butylaminomethyl-2-phenyl-imidazo[1,2-a]pyridin-6-yl)-N-hydroxy-acrylamide] are over 10000 nM and 55000 nM.
On to `CC(C)(C)CNCc1c(C(C)(C)C)nc2cc(/C=C/C(=O)NO)ccn12` [Compound 67, 3-[2-tert-Butyl-3-[(2,2-dimethyl-propylamino)-methyl]-imidazo[1,2-a]pyridin-7-yl]-N-hydroxy-acrylamide], for which the IC50 in assay [1] is 190 nM. In assay [2], this compound had a GI50 of 1500 nM.
The matching figures for `CC(C)(C)NCc1c(C(C)(C)C)nc2cc(/C=C/C(=O)NO)ccn12` [Compound 69, 3-[2-tert-Butyl-3-(tert-butylamino-methyl)-imidazo[1,2-a]pyridin-7-yl]-N-hydroxy-acrylamide]: 130 nM and 740 nM.
The corresponding values for `CC(C)(C)NCc1c(-c2ccccc2)nc2cc(C(=O)NO)ccn12` [Compound 70, 3-(tert-Butylamino-methyl)-2-phenyl-imidazo[1,2-a]pyridine-7-carboxylic acid hydroxyamide] are over 10000 nM and over 100000 nM.
The matching figures for `CCCCN(C)Cc1c(-c2ccccc2)nc2cc(/C=C/C(=O)NO)ccn12` [Compound 71, 3-{3-[(Butyl-methyl-amino)-methyl]-2-phenyl-imidazo[1,2-a]pyridin-7-yl}-N-hydroxy-acrylamide]: 120 nM and 1000 nM.
Consider `CCCCNCc1c(CCCC)nc2cc(/C=C/C(=O)NO)ccn12` [Compound 72, 3-(2-Butyl-3-butylaminomethyl-imidazo[1,2-a]pyridin-7-yl)-N-hydroxy-acrylamide], for which, in assay [1], the half-inhibitory concentration (IC50) was found to be 20 nM. For the same compound, the 50% growth inhibitory concentration (GI50) in assay [2] was determined as 180 nM.
